Results as given in patent US12012417B2, “N-substituted tetrahydrothienopyridine derivatives and uses thereof” (NOVARTIS AG, priority 2018, dated 2024).

How the values were obtained:
[1] = tested on: Dengue 1 virus MY97-10245; assay: High-content imaging cell-based flavivirus immunodetection (HCl-CFI) assay, Dengue 1; conditions: Dengue virus, A549, 48 h, read-out: Dengue 1 virus MY97-10245 in A549 using HCl [Inhibitor/IC50] Qualified AC50
[2] = tested on: Dengue 2 virus MY97-10340; assay: High-content imaging cell-based flavivirus immunodetection (HCl-CFI) assay, Dengue 2; conditions: Dengue virus, A549, 48 h, read-out: Dengue 2 virus MY97-10340 in A549 using HCl [Inhibitor/IC50] Qualified AC50, A549 cells, MOI 0.3, 48 h, viral E protein expression
Summary of the method: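 A549 cells infected at MOI 0.3, treated with 3-fold, 10-point compound dilutions for 48 h. After paraformaldehyde fixation, viral E protein immunostained with 4G2 antibody and nuclei counterstained; imaged by high-content imaging. EC50 = concentration reducing E protein expression by 50%, from dose-response curves.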

[3] = tested on: Dengue 3 virus MY05-34640-WT-C6/36; assay: High-content imaging cell-based flavivirus immunodetection (HCl-CFI) assay, Dengue 3; conditions: Dengue virus, A549, 48 h, read-out: Dengue 3 virus MY05-34640-WT-C6/36 in A549 using HCl [Inhibitor/IC50] Qualified AC50
[4] = tested on: Dengue 4 virus MY01-22713; assay: High-content imaging cell-based flavivirus immunodetection (HCl-CFI) assay, Dengue 4; conditions: Dengue virus, A549, 48 h, read-out: Dengue 4 virus MY01-22713 in A549 using HCl [Inhibitor/IC50] Qualified AC50, A549 cells, 48 h, viral E protein expression

Compound | EC50 [1] | EC50 [2] | EC50 [3] | EC50 [4]
COc1cc(CC(=O)Nc2sc3c(c2C#N)CN(Cc2cccc(F)c2)CC3)ccc1S(N)(=O)=O [Example 22, N-(3-cyano-5-(3-fluorobenzyl)-4,5,6,7-tetrahydrothieno[3,2-c]pyridin-2-yl)-2-(3-methoxy-4-sulfamoylphenyl)acetamide] | 100 to 1000 nM | < 100 nM | < 100 nM | < 100 nM
CNS(=O)(=O)c1ccc(CC(=O)Nc2sc3c(c2C#N)CN(Cc2cccc(F)c2)CC3)cc1 [Example 29, N-(3-cyano-5-(3-fluorobenzyl)-4,5,6,7-tetrahydrothieno[3,2-c]pyridin-2-yl)-2-(4-(N-methylsulfamoyl)phenyl)acetamide] | 100 to 1000 nM | < 100 nM | < 100 nM | < 100 nM
CNS(=O)(=O)c1ccccc1CC(=O)Nc1sc2c(c1C#N)CN(Cc1cccc(F)c1)CC2 [Example 28, N-(3-cyano-5-(3-fluorobenzyl)-4,5,6,7-tetrahydrothieno[3,2-c]pyridin-2-yl)-2-(2-(N-methylsulfamoyl)phenyl)acetamide] | 100 to 1000 nM | 100 to 1000 nM | < 100 nM | < 100 nM
Cc1cc(C)cc(CN2CCc3c(sc(NC(=O)Cc4ccc(S(C)(=O)=O)cc4)c3C#N)C2)c1 [Example 118, N-(3-cyano-6-(3,5-dimethylbenzyl)-4,5,6,7-tetrahydrothieno[2,3-c]pyridin-2-yl)-2-(4-(methylsulfonyl)phenyl)acetamide] | > 1000 nM | 100 to 1000 nM | 100 to 1000 nM | 100 to 1000 nM
CCOc1cc(CC(=O)Nc2sc3c(c2C#N)CN(CC2CCCCC2)CC3)ccc1S(N)(=O)=O [Example 12, N-(3-cyano-5-(cyclohexylmethyl)-4,5,6,7-tetrahydrothieno[3,2-c]pyridin-2-yl)-2-(3-ethoxy-4-sulfamoylphenyl)acetamide] | < 100 nM | < 100 nM | < 100 nM | < 100 nM
CC1(C)Cc2sc(NC(=O)Cc3ccc(S(N)(=O)=O)cc3)c(C#N)c2CN1Cc1cccc(F)c1 [Example 81, N-(3-cyano-5-(3-fluorobenzyl)-6,6-dimethyl-4,5,6,7-tetrahydrothieno[3,2-c]pyridin-2-yl)-2-(4-sulfamoylphenyl)acetamide] | 100 to 1000 nM | < 100 nM | < 100 nM | < 100 nM
CC1Cc2sc(NC(=O)Cc3ccc(S(N)(=O)=O)cc3)c(C#N)c2CN1CCc1ccccc1 (stereo not drawn) [Example 67, N-(3-cyano-6-methyl-5-phenethyl-4,5,6,7-tetrahydrothieno[3,2-c]pyridin-2-yl)-2-(4-sulfamoylphenyl)acetamide] | > 1000 nM | < 100 nM | < 100 nM | < 100 nM
COc1cc(CC(=O)Nc2sc3c(c2C#N)CN(Cc2cccc(F)c2)CC3)ccc1S(C)(=O)=O [Example 30, N-(3-cyano-5-(3-fluorobenzyl)-4,5,6,7-tetrahydrothieno[3,2-c]pyridin-2-yl)-2-(3-methoxy-4-(methylsulfonyl)phenyl)acetamide] | 100 to 1000 nM | < 100 nM | < 100 nM | < 100 nM
CC1Cc2sc(NC(=O)Cc3ccc(S(N)(=O)=O)cc3)c(C#N)c2CN1CCC1CCCCC1 (stereo not drawn) [Example 68, N-(3-cyano-5-(2-cyclohexylethyl)-6-methyl-4,5,6,7-tetrahydrothieno[3,2-c]pyridin-2-yl)-2-(4-sulfamoylphenyl)acetamide] | 100 to 1000 nM | < 100 nM | < 100 nM | < 100 nM
Cc1ccccc1CN1CCc2c(sc(NC(=O)Cc3ccc(S(N)(=O)=O)cc3)c2C#N)C1 [Example 97, N-(3-cyano-6-(2-methylbenzyl)-4,5,6,7-tetrahydrothieno[2,3-c]pyridin-2-yl)-2-(4-sulfamoylphenyl)acetamide] | 100 to 1000 nM | 100 to 1000 nM | 100 to 1000 nM | 100 to 1000 nM
Cc1cccc(CN2CCc3c(sc(NC(=O)Cc4ccc(S(N)(=O)=O)cc4)c3C#N)C2)c1 [Example 102, N-(3-cyano-6-(3-methylbenzyl)-4,5,6,7-tetrahydrothieno[2,3-c]pyridin-2-yl)-2-(4-sulfamoylphenyl)acetamide] | > 1000 nM | 100 to 1000 nM | 100 to 1000 nM | 100 to 1000 nM
Cc1cccc(CN2CCc3c(sc(NC(=O)Cc4ccc(S(N)(=O)=O)cc4)c3C#N)C2)c1C [Example 95, N-(3-cyano-6-(2,3-dimethylbenzyl)-4,5,6,7-tetrahydrothieno[2,3-c]pyridin-2-yl)-2-(4-sulfamoylphenyl) acetamide] | 100 to 1000 nM | 100 to 1000 nM | < 100 nM | < 100 nM
N#Cc1c(NC(=O)Cc2ccc(S(N)(=O)=O)cc2)sc2c1CCN(Cc1ccc(F)cc1Cl)C2 [Example 107, N-(6-(2-chloro-4-fluorobenzyl)-3-cyano-4,5,6,7-tetrahydrothieno[2,3-c]pyridin-2-yl)-2-(4-sulfamoylphenyl)acetamide] | 100 to 1000 nM | 100 to 1000 nM | 100 to 1000 nM | < 100 nM
CC1(C)Cc2sc(NC(=O)Cc3ccccc3)c(C#N)c2CN1CC1CCCCC1 [Example 73, N-(3-cyano-5-(cyclohexylmethyl)-6,6-dimethyl-4,5,6,7-tetrahydrothieno[3,2-c]pyridin-2-yl)-2-phenylacetamide] | 100 to 1000 nM | 100 to 1000 nM | 100 to 1000 nM | 100 to 1000 nM
N#Cc1c(NC(=O)Cc2ccc3c(c2)CNS3(=O)=O)sc2c1CN(Cc1cccc(F)c1)CC2 [Example 23, N-(3-cyano-5-(3-fluorobenzyl)-4,5,6,7-tetrahydrothieno[3,2-c]pyridin-2-yl)-2-(1,1-dioxido-2,3-dihydrobenzo[d]isothiazol-5-yl)acetamide] | 100 to 1000 nM | 100 to 1000 nM | < 100 nM | 100 to 1000 nM
CN(C)S(=O)(=O)c1ccc(CC(=O)Nc2sc3c(c2C#N)CN(Cc2cccc(F)c2)CC3)cc1 [Example 47, N-(3-cyano-5-(3-fluorobenzyl)-4,5,6,7-tetrahydrothieno[3,2-c]pyridin-2-yl)-2-(4-(N,N-dimethylsulfamoyl)phenyl)acetamide] | 100 to 1000 nM | < 100 nM | < 100 nM | 100 to 1000 nM
COc1cc(F)cc(CC(=O)Nc2sc3c(c2C#N)CN(Cc2cccc(F)c2)CC3)c1 [Example 35, N-(3-cyano-5-(3-fluorobenzyl)-4,5,6,7-tetrahydrothieno[3,2-c]pyridin-2-yl)-2-(3-fluoro-5-methoxyphenyl)acetamide] | > 1000 nM | 100 to 1000 nM | 100 to 1000 nM | 100 to 1000 nM
N#Cc1c(NC(=O)Cc2ccc(S(N)(=O)=O)c(F)c2)sc2c1CN(CC1CCCCC1)CC2 [Example 9, N-(3-cyano-5-(cyclohexylmethyl)-4,5,6,7-tetrahydrothieno[3,2-c]pyridin-2-yl)-2-(3-fluoro-4-sulfamoylphenyl)acetamide] | 100 to 1000 nM | < 100 nM | < 100 nM | < 100 nM
